Laboratory results taken from publication PMC11279401, “Inhibitory Effect of Selected Guaianolide and Germacranolide Sesquiterpene Lactones on Nitric Oxide Production” (Molecules, 2024).
“Also recorded” adds a separate entry of the source. Read-outs that look alike come from different tables or passages of the source. Each block holds one compound with its values, some of them ahead of it.

Assays:
[1] = test system: NO production by mouse peritoneal cells; assay: Nitric oxide assay (Griess), LPS + IFN-γ-activated mouse peritoneal cells; format: cell-based; details: 24 h; for Effect on IFN-γ + LPS-activated NO production (in words): 10 µM screening, mouse peritoneal cells; for IC50: (LPS + IFN-γ)-activated mouse peritoneal cells, concentrations 0.01–50.0 μM tested, read-out: Inhibition of nitric oxide production, IC50
Experimental: The tested compounds were dissolved in dimethyl sulfoxide (DMSO) to make stock solutions at a concentration of 50 mM, and then stored at −20 °C. Their biological activities were screened using a final concentration of 10 µM. […] This concentration of DMSO was devoid of any effects in biological assays.
(§1) The animals were killed by cervical dislocation and injected intraperitoneally with 8 mL of sterile saline. Pooled peritoneal cells collected from the mice (n = 4–6 in individual experiments) were washed and re-suspended in a culture medium. The cell suspension was seeded onto 96-well round-bottom microplates (Costar, Corning, NY, USA). Final samples were supplemented to 100 µL volumes, containing 1–2 × 10^6 cells per well, depending on the assay. Cultures were maintained at 37 °C, 5% CO2 in a humidified incubator (Heraeus Holding GmbH, Hanau, Germany). The complete RPMI-1640 culture medium (Sigma-Aldrich, St. Louis, MO, USA) contained 10% heat-inactivated fetal bovine serum, 2 mM L-glutamine, 50 µg/mL gentamicin, and 5 × 10^−5 M 2-mercaptoethanol (all Sigma-Aldrich).
High-output NO production was induced by a mixture of lipopolysaccharide (LPS from E. coli 0111:B4, 0.1 ng/mL; Sigma) and murine recombinant interferon-γ (IFN-γ, 5 ng/mL; R&D Systems, Minneapolis, MN, USA) in mouse peritoneal cells (2 × 10^6/mL). The tested compounds were applied concomitantly with both priming stimuli, and peritoneal macrophages were cultured for 24 h. The concentration of nitrites in the supernatants of the cell cultures was taken as a measure of NO production. It was detected in individual cell-free samples (50 µL) incubated for 5 min at ambient temperature with an aliquot of Griess reagent (1% sulfanilamide/0.1% naphtylendiamine/2.5% H3PO4). Absorbance at 540 nm was recorded using a microplate spectrophotometer (Tecan, Grödig, Austria). A nitrite calibration curve was used to convert absorbance values to µM of nitrite.

mouse peritoneal cells = assay: Cytotoxicity assay (WST-1), viability of mouse peritoneal cells; format: cell-based; details: 10 µM compound, primary murine macrophages
Experimental: (§2) The tested compounds were dissolved in dimethyl sulfoxide (DMSO) to make stock solutions at a concentration of 50 mM, and then stored at −20 °C. Their biological activities were screened using a final concentration of 10 µM.
as §1, with “Germany).” for “Germany). The complete RPMI-1640 culture medium (Sigma-Aldrich, St. Louis, MO, USA) contained 10% heat-inactivated fetal bovine serum, 2 mM L-glutamine, 50 µg/mL gentamicin, and 5 × 10^−5 M 2-mercaptoethanol (all Sigma-Aldrich).”
(§3) The viability of mouse peritoneal cells was determined using a colorimetric assay based on the cleavage of tetrazolium salt WST-1 by mitochondrial dehydrogenases in viable cells (Roche Diagnostics, Mannheim, Germany). The cells (1 × 10^6/mL) were cultured as described above. The viability of primary murine macrophages was tested in the presence of 10 µM of the respective test substance for […]. After the first 24 h of cultivation, WST-1 was added (10 µL), and the cells were kept in a Heraeus incubator at 37 °C for an additional 3 h. Triton X-100 (1%) was used as a common reference in the cytotoxicity assay. Optical density was evaluated at wavelengths of 450–690 nm.

[2] = test system: production of PGE2 by murine peritoneal cells; assay: Prostaglandin E2 assay (ELISA), LPS-stimulated murine peritoneal cells; format: cell-based, mouse; details: 10 ng/mL LPS, 6 h, murine peritoneal cells 2.0 × 10^6/mL
Experimental: as §1
(§4) The concentration of PGE2 was determined in the supernatants of cells cultured (2 × 10^6/mL) after the addition of 10 ng/mL LPS for an interval of 6 h. The levels of cytokines TNF-α, IL-1β, IL-6, and IL-10, and the chemokine RANTES were determined in the supernatants of cells cultured (2 × 10^6/mL) in the presence of 1 µg/mL LPS for an interval 21 h. The extent of PGE2 release and cytokine secretion was determined using enzyme-linked immune-absorbent assay (ELISA) kits according to the manufacturer’s instructions (R&D Systems, Minneapolis, MN, USA).

[3] = test system: secretion of cytokines TNF-α, IL-1β, IL-6, IL-10 and chemokine RANTES by murine peritoneal cells; assay: Cytokine assays (ELISA), LPS-stimulated murine peritoneal cells; format: cell-based, mouse; details: 1 µg/mL LPS, 21 h, IL-6, IL-10, RANTES
Experimental: as §1, §4

RAW264.7 macrophages = details: cited from earlier work
[4] = Cytotoxicity assay (WST-1), viability of mouse peritoneal cells; format: cell-based; details: 10 µM compound, mouse peritoneal cells 1.0 × 10^6/mL, 24 h, read-out: Cell viability (O.D.) relative to untreated controls; for viability at 24 h, 10 µM: primary mouse peritoneal cells (macrophages)
Experimental: as §2
as §1, with “Germany).” for “Germany). The complete RPMI-1640 culture medium (Sigma-Aldrich, St. Louis, MO, USA) contained 10% heat-inactivated fetal bovine serum, 2 mM L-glutamine, 50 µg/mL gentamicin, and 5 × 10^−5 M 2-mercaptoethanol (all Sigma-Aldrich).”
as §3

[5] = test system: polymorphonuclear lymphocytes; design: method as in PMID 30653318; details: cited from earlier work

IC50 [1]: 23.8 µM
Compound: C=C1C[C@@H](O)[C@@H]2[C@H](OC(=O)[C@H]2C)[C@H]2[C@H](C)C(=O)C[C@@H]12 [Compound 1, 8-epiisoamberboin]
NO production relative to controls stimulated with IFN-γ + LPS ([1]; 10 µM compound, mouse peritoneal cells 2.0 × 10^6/mL): about 25% | Effect on IFN-γ + LPS-activated NO production (in words) [1]: significant NO-inhibitory effect | Cytotoxicity / effect on cell viability (in words) (mouse peritoneal cells): without any suppression of cell viability

IC50 [1]: > 100 µM
Compound: CC1=C2C(=O)C=C(CO)[C@@H]2[C@H]2OC(=O)[C@@H](C)[C@@H]2[C@@H](O)C1 [Compound 4, 11β,13-dihydrolactucin]

IC50 [1]: > 100 µM
Compound: C=C1CC(O)C2C(C)C(=O)OC2C2C1CC(OC1OC(CO)C(O)C(O)C1O)C2C (stereo not shown) [Compound 5, 4,8-diepiisolippidiol glucoside]

IC50 [1]: > 100 µM
Compound: CC1=C2C(=O)C=C(COC3OC(CO)C(O)C(O)C3O)C2C2OC(=O)C(C)C2CC1 (stereo not shown) [Compound 7, crepidiaside B]

IC50 [1]: > 100 µM
Compound: CC1=CC(=O)C2=C(C)CC(OC3OC(CO)C(O)C(O)C3O)C3C(OC(=O)C3(C)O)C12 (stereo not drawn) [Compound 10, 11β-hydroxydeacetylmatricarin glucoside]

IC50 [1]: > 100 µM
Compound: C=C1CC(O)C2C(=C)C(=O)OC2C2C1CC(OC1OC(CO)C(O)C(O)C1O)C2C (stereo not shown) [Compound 11, 11,13-dehydro-8-epiisolippidiol glucoside]

IC50 [1]: > 100 µM
Compound: C=C1C(=O)OC2C1CCC(C)(O)C1CC(OC3OC(CO)C(O)C(O)C3O)C(=C)C21 (stereo not shown) [Compound 12, ixerin D]

IC50 [1]: 2.81 µM
Compound: C=C1C(=O)O[C@@H]2[C@H]3C(CO)=CC(=O)C3=C(C)CC[C@@H]12 [Compound 13, 8-deoxylactucin]
Effect on immune-activated production of PGE2 (in words) [2]: did not interfere | Effect on secretion of cytokines (in words) [3]: did not interfere | IC50 (RAW264.7 macrophages; RAW264.7 macrophages, read-out: Inhibition of nitric oxide production, IC50): 13 µM | Effect on IFN-γ + LPS-activated NO production (in words) [1]: significant NO-inhibitory effect | Cytotoxicity / effect on cell viability (in words) (mouse peritoneal cells): without any suppression of cell viability

IC50 [1]: 4.38 µM
Compound: eupatolide [Compound 17]
IC50 (RAW264.7 macrophages; murine macrophage line RAW264.7, read-out: Inhibitory potency against NO production, concentration range): 1.54 to 6.43 µM | Effect on IFN-γ + LPS-activated NO production (in words) [1]: significant NO-inhibitory effect

Second part, the compound before the results:

Compound: C=C1C[C@@H](O)[C@@H]2[C@H](OC(=O)[C@H]2C)[C@H]2[C@H](C)[C@@H](O)C[C@@H]12 [Compound 2, 8-epiisolippidiol]
IC50 [1]: > 100 µM

Compound: CC1=CC(=O)C2=C(C)C[C@H](O)[C@@H]3[C@H](OC(=O)[C@H]3C)[C@@H]12 [Compound 3, deacetylmatricarin]
IC50 [1]: > 100 µM

Compound: CC1=CC(=O)C2=C(C)CC(OC3OC(CO)C(O)C(O)C3O)C3C(C)C(=O)OC3C12 (stereo not shown) [Compound 6, deacetylmatricarin glucoside]
IC50 [1]: > 100 µM

Compound: C=C1C(O)CC2C(C)C(=O)OC2C2C(=C)C(OC3OC(CO)C(O)C(O)C3O)CC12 (stereo not shown) [Compound 8, ixerin F]
IC50 [1]: > 100 µM

Compound: CC1=CC(=O)C2=C(C)CCC3C(OC(=O)C3(C)OC3OC(CO)C(O)C(O)C3O)C12 (stereo not drawn) [Compound 9, 11β-hydroxyleukodin glucoside]
IC50 [1]: > 100 µM

Compound: C=C(CO)C(=O)O[C@H]1CC(=C)[C@@H]2C[C@H](O)C(=C)[C@@H]2[C@H]2OC(=O)C(=C)[C@@H]21 [Compound 14, cynaropicrin]
IC50 [1]: 9.87 µM | Cytotoxicity / effect on cell viability (in words) (mouse peritoneal cells): cytotoxic; also recorded: remarkable cytotoxicity | viability at 24 h, 10 µM [4]: ~50%

Compound: C=C1C(=O)O[C@@H]2C[C@@H](C)[C@@H]3C=CC(=O)[C@@]3(C)[C@@H](O)[C@H]12 [Compound 15, helenalin]
IC50 [1]: 0.74 µM

Compound: C=C1C(=O)O[C@@H]2/C=C(\C)CC/C=C(\C)CC[C@@H]12 [Compound 16, costunolide]
IC50 [1]: 3.2 µM | Cytotoxicity / effect on cell viability (in words) (mouse peritoneal cells): moderate toxicity; also recorded: remarkable cytotoxicity | viability at 24 h, 10 µM [4]: ~50%

Compound: C=C1C(=O)O[C@@H]2/C=C(\C)CC/C=C(\C)C[C@@H](OC(=O)/C(=C/CO)CO)[C@@H]12 [Compound 18, eupatoriopicrin]
Concentration up to which not toxic [5]: ≤ 2500 nM | IC50 [1]: 1.65 µM | Cytotoxicity / effect on cell viability (in words) (mouse peritoneal cells): highly toxic; also recorded: remarkable cytotoxicity | viability at 10 µM [4]: ~10%

Compound: C=C1C(=O)O[C@H]2[C@H]1CC/C(C)=C/CC[C@@]1(C)O[C@@H]21 [Compound 19, parthenolide]
Effect on IFN-γ + LPS-activated NO production (in words) [1]: substantially decreased the production of NO | IC50 [1]: 2.79 µM | viability at 24 h, 10 µM [4]: 81.1 ± 6.34%

Compound: C=C1C(=O)OC2C1CC(O)C(C)=CCCC1(C)OC21 (stereo not shown) [Compound 20, 9-hydroxyparthenolide]
Effect on IFN-γ + LPS-activated NO production (in words) [1]: substantially decreased the production of NO | IC50 [1]: 5.64 µM | viability at 10 µM [4]: 77 ± 5.09%

Compound: CC=C(C)C(=O)OC1(C)C(=O)OC2C=C(C)CCC=C(C)CCC(OC(C)=O)C21 (stereo not shown) [Compound 21, laserolide]
IC50 [1]: 90.2 µM | Cytotoxicity / effect on cell viability (in words) (mouse peritoneal cells): did not show any cytotoxicity
